What was measured:
VEGF = test: Western blot of VEGF in hippocampus of mice subjected to repetitive forced swim stress; format: in vivo
Procedure: Mice pretreated with 5 mg/kg of cotinine (Cot 5) or vehicle (Veh) were exposed to repetitive 6-min forced swim (FS) daily for 6 days (a) to under continuous treatment. Following testing, mice were euthanized and the levels of VEGF and β-tubulin in the hippocampus were analyzed by Western blot. The plots represent VEGF immunoreactivity (IR) values in the hippocampus of mice. […] Mice pretreated with 5 mg/kg of cotinine (Cot 5) or vehicle (Veh) were exposed to repetitive 6-min forced swim (FS) daily for 6 days (a) to under continuous treatment or controls, not subjected to the forced swim (NES). Following resting, mice were euthanized and the levels of VEGF and β-tubulin in the hippocampus were analyzed by Western blot. The plots represent VEGF immunoreactivity (IR) values in the hippocampus of mice. […] The Western blot analysis investigated the expression of VEGF (FS mice: n=8-1O/group; NES mice: n=4-5/group). […] Brain tissues were then disrupted by sonication in cold lyses buffer (Cell Signaling Technology, Danver, Mass., USA) containing a complete protease inhibitor cocktail (Roche Molecular Biochemicals). After sonication, brain extracts were incubated on ice for 30 min and centrifuged at 20,000×g for 30 min at 4° C. Protein concentrations of supernatants were measured using the Bio-Rad protein assay (Bio-Rad, Hercules, Calif., USA). Equal amounts of protein were separated by gradient (4-20%), SOS-PAGE, then transferred to nitrocellulose membranes (BA83 0.2 μM; Bio-Rad). The membranes were blocked in TBS with 0.1% Tween 20 (TBST) containing 5% dry skim milk for 1 h. Membranes were incubated with primary antibodies in TBST overnight at 4° C. and with secondary antibodies for 1 h at room temperature (RT) in a blocking buffer. […] Images were acquired using an Odyssey Infrared Imaging System (Ll-COR Biosciences) and analyzed using the NIH Image J software. To analyze the group and treatment effects, differences between group means in the behavioral analyses were assessed using two-way analysis of variance (ANOVA) and post hoc Tukey test. […]

[1] = Weight gain in rats subjected to CMF chemotherapy; format: in vivo, Wistar female rats
Procedure: Wistar female rats (2-4 months of age, 200-300 g) (n=10/group) were obtained from Harlan laboratories. Rats were housed in pairs, kept at 12 h light/12 h dark cycle and maintained in an air-conditioned room at a temperature of 21±1° C. and relative humidity of 60±10%. Food and water were available ad libitum. All rats were acclimated to the Veterinary Medical Unit for 1 week and handled daily. Weight was recorded every 2 days to assess for dehydration induced by the chemotherapy regime. All procedures were approved by the Institutional Animal Care and Use (IACUC) committee of the Bay Pines Veterans Affairs (VA) Healthcare System, in accordance with VA and The Guide for the Care and Use of Laboratory Animals. Following the habituation period, rats were divided into 4 groups (n=6-12/condition) and treated with warm saline (vehicle) or a combination of cyclophosphamide (40 mg/kg), methotrexate (37.5 mg/kg) and 5-fluorouracil (75 mg/kg) (CMF) via intraperitoneal (i.p. or IP) injection once a week for 2 weeks, the shortest time inducing cognitive impairment in the rats. […] Differences among the means were analyzed using one-way analysis of variance (ANOVA). […]

[2] = Porsolt's forced swim test, depressive-like behavior in rats subjected to CMF chemotherapy; format: in vivo, Wistar female rats; conditions: cotinine 5 mg/kg oral
Procedure: Wistar female rats (2-4 months of age, 200-300 g) (n=10/group) were obtained from Harlan laboratories. Rats were housed in pairs, kept at 12 h light/12 h dark cycle and maintained in an air-conditioned room at a temperature of 21±1° C. and relative humidity of 60±10%. Food and water were available ad libitum. All rats were acclimated to the Veterinary Medical Unit for 1 week and handled daily. Weight was recorded every 2 days to assess for dehydration induced by the chemotherapy regime. […]
This task was chosen to determine the effect of cotinine on depressive-like behavior is one of the more broadly used to assess potential antidepressant effects of drugs (Porsolt R D, Bertin A, Jalfre M (1977) Behavioral despair in mice: a primary screening test for antidepressants. Arch Int Pharmacodyn Ther 229(2):327-336; Castagne V, Moser P, Roux S, Porsolt R D (2010) Rodent models of depression: forced swim and tail suspension behavioral despair tests in rats and mice. Curr Protoc Neurosci 49:5.8.1-5.8.14). […] The freezing behavior, during 6-min trials, was recorded on video and scored by investigators blinded to the treatment arms. The immobility (freezing) time was recorded during a 6-min forced swim (FS) trial. […] The time in seconds (sec) spent by the mice immobile was scored by two investigators blind to the mice's treatments. […]

[3] = clinical studies, doses up to 1.5 mg cotinine base/kg; cited from earlier work
[4] = administered in the drinking water for 78 weeks; rats initiated with FANFT; cited from earlier work
monocytes = conditions: α7nAChR-dependent; cited from earlier work

CN1C(=O)CC[C@H]1c1cccnc1 [cotinine, (5S)-1-methyl-5-(3-pyridyl) pyrrolidin-2-one]
VEGF protein expression in the hippocampus vs NES mice (VEGF; FS mice, cotinine 5 mg/kg, compared with non-stressed mice): not significantly different | VEGF protein expression in the hippocampus vs vehicle-treated FS mice (VEGF; FS mice, cotinine 5 mg/kg, normalized to β-tubulin): significantly higher levels of VEGF expression | VEGF protein expression in the absence of stress (VEGF; non-stressed mice, cotinine vs vehicle, t=0.2910, p=0.7795): no changes in VEGF expression | recovery of weight gain after chemotherapy ([1]; CMF-treated rats, cotinine 5 mg/kg oral daily from 3 days after chemotherapy, vs chemotherapy-treated control rats p<0.05): enhanced the recovery of weight gain | weight levels reached compared with vehicle-treated rats ([1]; cotinine 5 mg/kg oral daily, 30 days of experiments): indistinguishable from the vehicle-treated rats | depressive-like behavior (immobility), chemotherapy-treated vs chemotherapy and cotinine-treated ([2]; CMF-treated rats, p<0.01): significant reduction | depressive-like behavior (immobility), vehicle-treated vs cotinine-treated ([2]; rats without chemotherapy, p<0.001): significant reduction | recall of a short list [3]: did not affected the recall | recall on the long list on a verbal recall task [3]: impaired recall | carcinogenicity / promotion of urinary bladder tumors [4]: neither carcinogenic nor promoted urinary bladder tumors | inflammatory response to gram-negative bacteria (expression of TNF-α, IL-1β and IL-6) (monocytes): reduced the inflammatory response
